Test results from the NIST ThermoML archive (doi:10.1016/j.jct.2016.06.012).
± gives the expanded uncertainty stated by the source.

Experiment: xn = mol fraction of the nth substance listed
Conditions: 100 kPa, Liquid; for viscosity: Capillary tube (Ostwald / Ubbelohde) method; for mass density: Vibrating tube method

CCCCn1cc[n+](C)c1C.O=S(=O)([N-]S(=O)(=O)C(F)(F)F)C(F)(F)F + O=C1CCCO1
Conditions | mass density [kg/m3] | viscosity [mPa·s]
293.15 K, x1 = 0.0532 | 1183 ± 9.6 | 2.62 ± 0.06
293.15 K, x1 = 0.1004 | 1219.51 ± 9.8 | 3.65 ± 0.09
293.15 K, x1 = 0.1504 | 1250.59 ± 10 | 4.95 ± 0.11
293.15 K, x1 = 0.1999 | 1275.61 ± 10 | 6.54 ± 0.15
293.15 K, x1 = 0.2988 | 1314.04 ± 11 | 10.79 ± 0.24
293.15 K, x1 = 0.4006 | 1342.77 ± 11 | 17.78 ± 0.39
293.15 K, x1 = 0.5005 | 1364.2 ± 11 | 26.66 ± 0.59
293.15 K, x1 = 0.5999 | 1381 ± 11 | 40.38 ± 0.88
293.15 K, x1 = 0.7 | 1394.71 ± 11 | 56.57 ± 1.2
293.15 K, x1 = 0.8013 | 1406.18 ± 11 | 79.17 ± 1.8
293.15 K, x1 = 0.8986 | 1415.43 ± 11 | 102.22 ± 2.4
293.15 K, x1 = 1 | 1423.72 ± 11 | 133.59 ± 3.4
298.15 K, x1 = 0.0532 | 1178.1 ± 9.5 | 2.43 ± 0.06
298.15 K, x1 = 0.1004 | 1214.61 ± 9.8 | 3.29 ± 0.08
298.15 K, x1 = 0.1504 | 1245.77 ± 10 | 4.48 ± 0.1
298.15 K, x1 = 0.1999 | 1270.81 ± 10 | 5.77 ± 0.13
298.15 K, x1 = 0.2988 | 1309.26 ± 10 | 9.32 ± 0.21
298.15 K, x1 = 0.4006 | 1338.05 ± 11 | 14.92 ± 0.33
298.15 K, x1 = 0.5005 | 1359.5 ± 11 | 22.02 ± 0.48
298.15 K, x1 = 0.5999 | 1376.34 ± 11 | 32.56 ± 0.7
298.15 K, x1 = 0.7 | 1390.08 ± 11 | 44.79 ± 0.96
298.15 K, x1 = 0.8013 | 1401.56 ± 11 | 60.93 ± 1.3
298.15 K, x1 = 0.8986 | 1410.81 ± 11 | 78.62 ± 1.8
298.15 K, x1 = 1 | 1419.13 ± 11 | 101.34 ± 2.4
303.15 K, x1 = 0.0532 | 1173.22 ± 9.5 | 2.23 ± 0.05
303.15 K, x1 = 0.1004 | 1209.75 ± 9.7 | 2.98 ± 0.07
303.15 K, x1 = 0.1504 | 1240.94 ± 10 | 4.01 ± 0.09
303.15 K, x1 = 0.1999 | 1266 ± 10 | 5.11 ± 0.12
303.15 K, x1 = 0.2988 | 1304.49 ± 10 | 8.06 ± 0.18
303.15 K, x1 = 0.4006 | 1333.32 ± 11 | 12.72 ± 0.28
303.15 K, x1 = 0.5005 | 1354.8 ± 11 | 18.27 ± 0.4
303.15 K, x1 = 0.5999 | 1371.67 ± 11 | 26.34 ± 0.57
303.15 K, x1 = 0.7 | 1385.42 ± 11 | 35.8 ± 0.77
303.15 K, x1 = 0.8013 | 1396.93 ± 11 | 48.32 ± 1
303.15 K, x1 = 0.8986 | 1406.19 ± 11 | 61.12 ± 1.3
303.15 K, x1 = 1 | 1414.52 ± 11 | 77.86 ± 1.7
308.15 K, x1 = 0.0532 | 1168.35 ± 9.4 | 2.05 ± 0.05
308.15 K, x1 = 0.1004 | 1204.91 ± 9.7 | 2.72 ± 0.06
308.15 K, x1 = 0.1504 | 1236.11 ± 9.9 | 3.65 ± 0.08
308.15 K, x1 = 0.1999 | 1261.18 ± 10 | 4.57 ± 0.1
308.15 K, x1 = 0.2988 | 1299.72 ± 10 | 7.1 ± 0.16
308.15 K, x1 = 0.4006 | 1328.58 ± 11 | 10.83 ± 0.24
308.15 K, x1 = 0.5005 | 1350.1 ± 11 | 15.54 ± 0.34
308.15 K, x1 = 0.5999 | 1366.99 ± 11 | 21.9 ± 0.47
308.15 K, x1 = 0.7 | 1380.78 ± 11 | 29.22 ± 0.63
308.15 K, x1 = 0.8013 | 1392.3 ± 11 | 39.19 ± 0.84
308.15 K, x1 = 0.8986 | 1401.58 ± 11 | 48.88 ± 1
308.15 K, x1 = 1 | 1409.91 ± 11 | 61.73 ± 1.3
313.15 K, x1 = 0.0532 | 1163.43 ± 9.4 | 1.9 ± 0.04
313.15 K, x1 = 0.1004 | 1200.07 ± 9.7 | 2.49 ± 0.06
313.15 K, x1 = 0.1504 | 1231.24 ± 9.9 | 3.28 ± 0.07
313.15 K, x1 = 0.1999 | 1256.38 ± 10 | 4.11 ± 0.09
313.15 K, x1 = 0.2988 | 1294.96 ± 10 | 6.29 ± 0.14
313.15 K, x1 = 0.4006 | 1323.85 ± 11 | 9.4 ± 0.2
313.15 K, x1 = 0.5005 | 1345.39 ± 11 | 13.32 ± 0.29
313.15 K, x1 = 0.5999 | 1362.33 ± 11 | 18.32 ± 0.39
313.15 K, x1 = 0.7 | 1376.14 ± 11 | 24.44 ± 0.52
313.15 K, x1 = 0.8013 | 1387.67 ± 11 | 32.14 ± 0.68
313.15 K, x1 = 0.8986 | 1396.98 ± 11 | 39.87 ± 0.85
313.15 K, x1 = 1 | 1405.31 ± 11 | 49.77 ± 1
318.15 K, x1 = 0.0532 | 1158.58 ± 9.4 | 1.74 ± 0.04
318.15 K, x1 = 0.1004 | 1195.18 ± 9.6 | 2.3 ± 0.05
318.15 K, x1 = 0.1504 | 1226.41 ± 9.9 | 3.06 ± 0.07
318.15 K, x1 = 0.1999 | 1251.54 ± 10 | 3.74 ± 0.08
318.15 K, x1 = 0.2988 | 1290.17 ± 10 | 5.63 ± 0.12
318.15 K, x1 = 0.4006 | 1319.11 ± 11 | 8.18 ± 0.18
318.15 K, x1 = 0.5005 | 1340.7 ± 11 | 11.52 ± 0.25
318.15 K, x1 = 0.5999 | 1357.64 ± 11 | 15.42 ± 0.33
318.15 K, x1 = 0.7 | 1371.48 ± 11 | 20.51 ± 0.44
318.15 K, x1 = 0.8013 | 1383.04 ± 11 | 26.78 ± 0.57
318.15 K, x1 = 0.8986 | 1392.36 ± 11 | 32.9 ± 0.7
318.15 K, x1 = 1 | 1400.7 ± 11 | 40.7 ± 0.85
323.15 K, x1 = 0.0532 | 1153.71 ± 9.3 | 1.63 ± 0.04
323.15 K, x1 = 0.1004 | 1190.32 ± 9.6 | 2.12 ± 0.05
323.15 K, x1 = 0.1504 | 1221.58 ± 9.8 | 2.72 ± 0.06
323.15 K, x1 = 0.1999 | 1246.73 ± 10 | 3.39 ± 0.08
323.15 K, x1 = 0.2988 | 1285.42 ± 10 | 5.03 ± 0.11
323.15 K, x1 = 0.4006 | 1314.4 ± 11 | 7.22 ± 0.16
323.15 K, x1 = 0.5005 | 1336.03 ± 11 | 10.06 ± 0.22
323.15 K, x1 = 0.5999 | 1352.99 ± 11 | 13.17 ± 0.28
323.15 K, x1 = 0.7 | 1366.86 ± 11 | 17.44 ± 0.37
323.15 K, x1 = 0.8013 | 1378.44 ± 11 | 22.39 ± 0.48
323.15 K, x1 = 0.8986 | 1387.78 ± 11 | 27.46 ± 0.58
323.15 K, x1 = 1 | 1396.13 ± 11 | 33.69 ± 0.71
